One may read the ED50 as the dose that gives a 50% effect, or the effect in half of the subjects. Higher therefore signals a need for a large dose.

Consider six compounds from patent US6288085A, “Piperidine derivatives for treating psychoses” (Akzo Nobel N.V., priority 1996, dated 2001).

Data set [1] has as its system climbing behaviour in mice, induced by apomorphine (dopamine receptors). Put plainly: Apomorphine climbing test (ACT) in mice. The data set is classed as in vivo. Particulars: Mus musculus, 0.75 mg/kg apomorphine HCl sc after 30 min, scored at 10 and 20 min. The text has this:
Apomorphine Climbing Test In Mice
The ability of dopamine receptor antagonists to inhibit the behavioural effects in rodents caused by dopamine agonists such as apomorphine is a well established criterion for predicting the antipsychotic efficacy of these drugs in man (see e.g. W. C. Bowman and M. J. Rand, Textbook of Pharmacology, 2nd ed., 1980, 15, 6). A particularly relevant test in this respect is the apomorphine climbing test (ACT) which measures the ability of a dopamine antagonist to inhibit the climbing behaviour in mice, induced by the subcutaneous or oral administration of apomorphine. Activity in this test, following systemic and oral administration, has been widely used as a predictor of antipsychotic activity i.e. anti-schizophrenic activity (see e.g. J. T Strupczewski et.al., J. Med. Chem., 1995, 38, 1119). Mice treated with apomorphine HCl tend to adopt a vertical position along the wall of a wire mesh cylinder, standing or climbing. This climbing behaviour is considered to be elicited by apomorphine-mediated stimulation of dopamine receptors. […] Test compounds which modulate this climbing behaviour may have anti-psychotic activity.
The various treatments are randomly distributed over the mice. Each experiment consists of 1+n treatment groups: 1 being a control group of 12 mice receiving apomorphine and vehicle subcutaneously or being a control group of 12 mice receiving apomorphine subcutaneously and vehicle orally; n being (usually 4) compound groups of 12 mice receiving apomorphine and test compound subcutaneously or being compound groups of 12 mice receiving apomorphine subcutaneously and test compound orally.
Experiments are performed in 3 runs of 20 mice each. The mice are marked and weighed, test compound or vehicle is administered subcutaneously and the mice are placed in small Macrolon cages of 17×11×13 cm, 5 mice per cage, or test compound or vehicle is administered orally and the mice are placed in Macrolon cages of 29×11×13 cm, 5 mice per cage. After 30 min 0.75 mg/kg apomorphine HCl is administered subcutaneously in mice treated subcutaneously with vehicle or test compound, or 0.75 mg/kg apomorphine HCl is administered subcutaneously in mice treated orally with vehicle or test compound, and the mice are placed individually in a wire mesh cylinder (diameter 12 cm, height 14 cm).
At 10 min after the treatment with apomorphine the climbing behaviour of each mouse is observed and expressed as a score, according to the following grade: […]
4 paws on the floor score 0
1 or 2 paws holding the wall score 1
3 or 4 paws holding the wall score 2
At 20 min after the treatment with apomorphine the climbing behaviour is observed and scored again. For each treatment group the mean score per mouse is determined. The score of the control group should be at least 1.0; if not, the trial is rejected. The final result per group is expressed as the percentage over the control group.
The results of this test for the present test compounds are denoted in Table I (subcutaneous and oral administration of test compound).

The nature of the next data set: Catalepsy in rats (CATR). The data set is classed as in vivo, Male Wistar rats. Conditions: rat; catalepsy assessed at 60 and 120 minutes after drug administration. The protocol: (§1) Catalepsy in rats: Male Wistar rats (100-125 g, Olac UK) were used for catalepsy experiments. Catalepsy was assessed as described previously (Broekkamp et al, Naunyn Schmiedeberg's Arch. Pharmacol. 338, 191 1988). Briefly, rats were tested in 6 different observation trials in which the animals were placed in abnormal postures and scored positively with one point for maintaining the imposed posture for 10s. The imposed postures were; vertical clinging to a grid, upright standing with a high support for the front paws, extension of hindlegs, placement on back, placement of spatula in the mouth and rotation in a wire mesh cylinder.
(§2) Theoretically a maximum score of 6 can be reached. Catalepsy was assessed at 60 and 120 minutes after drug administration. The data were evaluated by 2 way ANOVAR followed by a Newman Kools post hoc test and ED50 values calculated (Table II).

For another data set, the system named is catalepsy. Put plainly: Catalepsy in rats (CATR). The class given is in vivo, Male Wistar rats. As to the method: as §1, §2
Setting [2] is: po administration of test compound.
Where [3] appears, read: sc administration of test compound.

With `CN1CCC(=C(c2ccc(F)cc2)c2cc(Cl)cs2)CC1` [Example 2, 1-methyl-4-[(4-chloro-2-thienyl)-(4-fluorophenyl)]-methylene-piperidine], the ED50 in data set [1] (setting [2]) is 5 mg/kg; in data set [1] (setting [3]) it was 0.6 mg/kg; in the data set “Catalepsy in rats (CATR)” it was more than 50 mg/kg. The “CATR score at max dose” value with catalepsy (at 56 mg/kg, theoretical maximum score 6, 60 and 120 minutes) turned out to be 0.2.

`CN(C)CCCN1c2ccccc2Sc2ccc(Cl)cc21` [chlorpromazine, reference compound] displayed an ED50 in the data set “Catalepsy in rats (CATR)” of 4.8 mg/kg. Besides, the “CATR score at max dose” value in the data set on catalepsy (rat, in vivo, 14 mg/kg) stood at 5.3.

Turning to `Cc1csc(C(=C2CCN(C)CC2)c2ccc(F)cc2)c1` [Example 3, 1-methyl-4-[(4-methyl-2-thienyl)-(4-fluoropheny)]methylene-piperidine], the values for the median effective dose (ED50) (in data set [1] (setting [2]); in data set [1] (setting [3]); in the data set “Catalepsy in rats (CATR)”) were 8.6 mg/kg, 1.5 mg/kg and more than 75 mg/kg, respectively. Further, the “CATR score at max dose” value with catalepsy (at 75 mg/kg, theoretical maximum score 6, 60 and 120 minutes) stood at 0.2.

As for `CN1CCC(=C(c2ccc(F)cc2)c2cccs2)CC1` [Compound A, 1-methyl-4-[(2-thienyl)-(4-fluorophenyl)]methylenepiperidine, reference compound], the 50% effective dose (ED50) came to 100 mg/kg in data set [1] (setting [2]) and 2.8 mg/kg in data set [1] (setting [3]).

`CN1CCC(=C(c2ccccc2)c2cccs2)CC1` [Compound B, 1-methyl-4-(2-thienyl)-phenyl-methylenepiperidine, reference compound] gave an ED50 in data set [1] (setting [3]) of 22 mg/kg.

For the compound `CN1CCC(=C(c2ccccc2)c2ccc(Cl)s2)CC1` [Compound C, 1-methyl-4-[(-5-chloro-2-thienyl)-phenyl]methylenepiperidine, reference compound], it took a dose of 22 mg/kg to reach the 50% effect level in data set [1] (setting [3]) (ED50).
